In PubChem BioAssay AID248 (DTP/NCI, 2004):
“And” between values parts separate entries of the source, which are not always exact repeats. Equal entries are not always repeated. Toxic doses and inconclusive results are not listed. No stated cut-off is given here; in the data, active means T/C of 150% or more; inactive means T/C below 125%.

Tested on: L1210 leukemia ip in BDF1 mice, survival T/C
Assay: NCI In Vivo Anticancer Drug Screen. Data for tumor model L1210 Leukemia (intraperitoneal) in B6D2F1 (BDF1) mice
Details: endpoint: mean survival time, higher = longer survival
Procedure, shortened: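 Tumor cells were implanted, animals were treated, and survival was followed. The result divides the treated measurement by the vehicle-control measurement.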

[1] = dose: 100.0 mg/kg/injection, schedule: Q01DX009 (ip), vehicle: saline
[2] = dose: 200.0 mg/kg/injection, schedule: Q01DX009 (ip), vehicle: saline
[3] = dose: 400.0 mg/kg/injection, schedule: Q01DX009 (ip), vehicle: saline
[4] = dose: 100.0 mg/kg/injection, schedule: Q01DX009 (ip), vehicle: saline with Tween-80
[5] = dose: 100.0 mg/kg/injection, schedule: Q04DX002 (ip), vehicle: saline with Tween-80
[6] = dose: 100.0 mg/kg/injection, schedule: Q04DX003 (ip), vehicle: saline with Tween-80
[7] = dose: 200.0 mg/kg/injection, schedule: Q01DX009 (ip), vehicle: saline with Tween-80
[8] = dose: 200.0 mg/kg/injection, schedule: Q04DX002 (ip), vehicle: saline with Tween-80
[9] = dose: 200.0 mg/kg/injection, schedule: Q04DX003 (ip), vehicle: saline with Tween-80
[10] = dose: 400.0 mg/kg/injection, schedule: Q01DX009 (ip), vehicle: saline with Tween-80
[11] = dose: 400.0 mg/kg/injection, schedule: Q04DX003 (ip), vehicle: saline with Tween-80
[12] = dose: 100.0 mg/kg/injection, schedule: Q04DX003 (ip), vehicle: Klucel (hydroxypropylcellulose) (HPC)
[13] = dose: 200.0 mg/kg/injection, schedule: Q04DX003 (ip), vehicle: Klucel (hydroxypropylcellulose) (HPC)
[14] = dose: 400.0 mg/kg/injection, schedule: Q04DX003 (ip), vehicle: Klucel (hydroxypropylcellulose) (HPC)
[15] = dose: 100.0 mg/kg/injection, schedule: Q04DX002 (ip), vehicle: saline
[16] = dose: 200.0 mg/kg/injection, schedule: Q04DX002 (ip), vehicle: saline
[17] = dose: 100.0 mg/kg/injection, schedule: Q04DX002 (ip), vehicle: Klucel (hydroxypropylcellulose) (HPC)
[18] = dose: 200.0 mg/kg/injection, schedule: Q04DX002 (ip), vehicle: Klucel (hydroxypropylcellulose) (HPC)
[19] = dose: 400.0 mg/kg/injection, schedule: Q04DX002 (ip), vehicle: Klucel (hydroxypropylcellulose) (HPC)
[20] = dose: 50.0 mg/kg/injection, schedule: Q01DX001 (ip), vehicle: saline
[21] = dose: 100.0 mg/kg/injection, schedule: Q01DX001 (ip), vehicle: saline
[22] = dose: 200.0 mg/kg/injection, schedule: Q01DX001 (ip), vehicle: saline
[23] = dose: 400.0 mg/kg/injection, schedule: Q01DX001 (ip), vehicle: saline
[24] = dose: 100.0 mg/kg/injection, schedule: Q01DX001 (ip), vehicle: carboxymethylcellulose (CMC)
[25] = dose: 200.0 mg/kg/injection, schedule: Q01DX001 (ip), vehicle: carboxymethylcellulose (CMC)
[26] = dose: 400.0 mg/kg/injection, schedule: Q01DX001 (ip), vehicle: carboxymethylcellulose (CMC)
[27] = dose: 25.0 mg/kg/injection, schedule: Q01DX009 (ip), vehicle: saline
[28] = dose: 50.0 mg/kg/injection, schedule: Q01DX009 (ip), vehicle: saline
[29] = dose: 50.0 mg/kg/injection, schedule: Q04DX003 (ip), vehicle: saline
[30] = dose: 100.0 mg/kg/injection, schedule: Q01DX009 (ip), vehicle: Klucel (hydroxypropylcellulose) (HPC)
[31] = dose: 200.0 mg/kg/injection, schedule: Q01DX009 (ip), vehicle: Klucel (hydroxypropylcellulose) (HPC)
[32] = dose: 400.0 mg/kg/injection, schedule: Q01DX009 (ip), vehicle: Klucel (hydroxypropylcellulose) (HPC)
[33] = dose: 100.0 mg/kg/injection, schedule: Q01DX001 (ip), vehicle: saline with Tween-80
[34] = dose: 200.0 mg/kg/injection, schedule: Q01DX001 (ip), vehicle: saline with Tween-80

Measured: T/C

C=CCSc1nc(N)nc2c1ncn2C1CC(O)C(CO)O1 (stereo not given)
inactive: dose: 100.0 mg/kg/injection, schedule: Q01DX005 (ip), vehicle: saline 102 % of control | [1] 102 % of control | dose: 200.0 mg/kg/injection, schedule: Q01DX005 (ip), vehicle: saline 104 % of control | [2] 109 % of control | [3] 109 % of control

O=C(Nc1ccc(Cl)cc1[N+](=O)[O-])Oc1ccccc1C(=O)Nc1ccccc1
inactive: [4] 92 % of control | [5] 93 % of control and 95 % of control | [6] 97 % of control | [7] 91 % of control | [8] 98 % of control and 88 % of control | [9] 95 % of control | [10] 89 % of control and 92 % of control | dose: 400.0 mg/kg/injection, schedule: Q04DX002 (ip), vehicle: saline with Tween-80 97 % of control and 91 % of control | [11] 93 % of control

C1=CCOCOC1
inactive: dose: 12.5 mg/kg/injection, schedule: Q01DX009 (ip), vehicle: saline with Tween-80 97 % of control | dose: 25.0 mg/kg/injection, schedule: Q01DX009 (ip), vehicle: saline with Tween-80 94 % of control | dose: 50.0 mg/kg/injection, schedule: Q01DX009 (ip), vehicle: saline with Tween-80 97 % of control | [4] 113 % of control

Cc1c(N)c(C)c(-c2c(O)c(Br)c(C)c(O)c2Br)c(C)c1Br
inactive: dose: 100.0 mg/kg/injection, schedule: Q01DX001 (ip), vehicle: Klucel (hydroxypropylcellulose) (HPC) 93 % of control | [12] 102 % of control | dose: 200.0 mg/kg/injection, schedule: Q01DX001 (ip), vehicle: Klucel (hydroxypropylcellulose) (HPC) 98 % of control | [13] 96 % of control | dose: 400.0 mg/kg/injection, schedule: Q01DX001 (ip), vehicle: Klucel (hydroxypropylcellulose) (HPC) 87 % of control | [14] 94 % of control

CC(=O)N(C)c1cccc(C(=O)O)c1
inactive: [6] 98 % of control | [9] 94 % of control | [11] 98 % of control

C=CCP(c1ccccc1)c1ccccc1
inactive: [15] 98 % of control | [16] 91 % of control

COC1CCC(CCNC(N)=O)CC1OC (stereo not given)
inactive: [17] 100 % of control | [18] 117 % of control | [19] 90 % of control

COC1OCC(NC(C)=O)C(O)C1O (stereo not given)
inactive: [20] 102 % of control | [21] 102 % of control | [22] 100 % of control | [23] 107 % of control

O=C(Nc1nc2ccccc2s1)C(F)(F)F
inactive: [21] 102 % of control | [22] 93 % of control | [23] 102 % of control

COc1cc(N(CCCl)CCCl)c(OC)cc1C=Nc1cccc(C(F)(F)F)c1
inactive: [24] 120 % of control | [25] 115 % of control | [26] 98 % of control

O=C1OC(=O)C2C3c4ccccc4C(c4ccccc43)C12 (stereo not given)
inactive: [27] 103 % of control | [28] 98 % of control | [29] 96 % of control | [21] 98 % of control | [1] 114 % of control | [12] 103 % of control | dose: 100.0 mg/kg/injection, schedule: Q04DX003 (ip), vehicle: saline 98 % of control | [22] 88 % of control | [13] 90 % of control

OCCCNc1nc2cc(Br)ccc2c2ccc(Br)cc12
inactive: [12] 90 % of control | [13] 105 % of control | [14] 97 % of control

CCCCCCCCC(C(O)c1ccccc1)C(O)(C(F)(F)F)C(F)(F)F (stereo not given)
inactive: [4] 95 % of control | [7] 105 % of control | [10] 97 % of control

O=S(=O)(O)O.[N-]=C(N)/N=C(\[NH-])N.[N-]=C(N)/N=C(\[NH-])N.[N-]=C(N)NC(=[N-])N.[Rh+3]
inactive: dose: 12.5 mg/kg/injection, schedule: Q04DX003 (ip), vehicle: saline 91 % of control | [27] 118 % of control | dose: 25.0 mg/kg/injection, schedule: Q04DX003 (ip), vehicle: saline 109 % of control | [28] 98 % of control | [29] 96 % of control

CCCCSCC(N)C(=O)O (stereo not given)
inactive: [30] 96 % of control | [12] 92 % of control | [31] 96 % of control | [13] 94 % of control | [32] 98 % of control | [14] 103 % of control

CC1(C)CC(O)CC(O)C1 (stereo not given)
inactive: dose: 50.0 mg/kg/injection, schedule: Q01DX001 (ip), vehicle: carboxymethylcellulose (CMC) 104 % of control | [20] 98 % of control | [24] 101 % of control | [21] 120 % of control | [25] 106 % of control | [22] 104 % of control | [26] 98 % of control | [23] 95 % of control

CCCNC(=O)Oc1ccccc1C(=O)NCO
inactive: dose: 100.0 mg/kg/injection, schedule: Q01DX009 (ip), vehicle: other 101 % of control | dose: 200.0 mg/kg/injection, schedule: Q01DX009 (ip), vehicle: other 96 % of control

CC(=O)OC1c2sccc2Cc2ccsc21
inactive: [33] 91 % of control | [34] 105 % of control

Nc1ccccc1Sc1ccc(Br)cc1[N+](=O)[O-]
inactive: dose: 37.5 mg/kg/injection, schedule: Q04DX003 (ip), vehicle: saline 98 % of control | dose: 75.0 mg/kg/injection, schedule: Q04DX003 (ip), vehicle: saline 102 % of control | dose: 150.0 mg/kg/injection, schedule: Q04DX003 (ip), vehicle: saline 93 % of control

O=C1CN(CCN2CC(=O)NC2=S)C(=S)N1
inactive: [5] 95 % of control | [8] 100 % of control

CCOP(=O)(OCC)N(C(=O)O)C1CCCCC1
inactive: [28] 96 % of control | [1] 109 % of control | [2] 108 % of control | [3] 105 % of control

CC(C)CC(CC(C)C)C(=O)C1C2CCC(O2)C1C(=O)C(CC(C)C)CC(C)C (stereo not given)
inactive: dose: 6.25 mg/kg/injection, schedule: Q04DX002 (ip), vehicle: saline with Tween-80 94 % of control | dose: 12.5 mg/kg/injection, schedule: Q04DX002 (ip), vehicle: saline with Tween-80 94 % of control | dose: 25.0 mg/kg/injection, schedule: Q04DX002 (ip), vehicle: saline with Tween-80 86 % of control

Cc1ccc(N=Nc2ccc(N(C)C)cc2)cc1
inactive: [30] 90 % of control | [31] 92 % of control | [32] 90 % of control

Cc1nc(Br)c([N+](=O)[O-])[nH]1
inactive: [33] 95 % of control | [34] 114 % of control | dose: 400.0 mg/kg/injection, schedule: Q01DX001 (ip), vehicle: saline with Tween-80 97 % of control

O=C(Nc1ccc(NC(=O)c2ccccc2)c2c1C(=O)c1ccccc1C2=O)c1ccccc1
inactive: [30] 96 % of control | [17] 100 % of control | [31] 96 % of control | [18] 93 % of control | [32] 107 % of control | [19] 103 % of control

CCN(CC)C(=O)COc1ccc(Cl)cc1
inactive: [15] 114 % of control | [16] 107 % of control | dose: 400.0 mg/kg/injection, schedule: Q04DX002 (ip), vehicle: saline 118 % of control

CC(=O)OC12CCC(O1)C1C(=O)OC(=O)C12 (stereo not given)
inactive: [12] 101 % of control | [13] 97 % of control | [14] 97 % of control
